From BindingDB's records for doi:10.1016/s0960-894x(00)00312-7 (Signal Pharmaceuticals, 2000)

Biological target: Protein c-Fos/Transcription factor Jun (Homo sapiens, UniProt P05412+P01100)
Assay: Inhibition of AP-1 (activator protein-1) mediated transcriptional activation in Jurkat T-cells

Chain of Protein c-Fos/Transcription factor Jun (P05412 whole entry): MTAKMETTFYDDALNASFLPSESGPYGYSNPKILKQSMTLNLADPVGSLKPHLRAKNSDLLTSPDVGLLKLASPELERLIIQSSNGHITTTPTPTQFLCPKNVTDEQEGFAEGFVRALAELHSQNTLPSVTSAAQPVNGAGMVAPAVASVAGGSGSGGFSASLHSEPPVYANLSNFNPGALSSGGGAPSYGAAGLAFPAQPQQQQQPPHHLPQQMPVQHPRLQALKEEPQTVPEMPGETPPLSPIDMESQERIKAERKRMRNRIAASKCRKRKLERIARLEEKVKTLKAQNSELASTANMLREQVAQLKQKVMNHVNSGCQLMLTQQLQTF
Chain of Protein c-Fos/Transcription factor Jun (P01100 whole entry): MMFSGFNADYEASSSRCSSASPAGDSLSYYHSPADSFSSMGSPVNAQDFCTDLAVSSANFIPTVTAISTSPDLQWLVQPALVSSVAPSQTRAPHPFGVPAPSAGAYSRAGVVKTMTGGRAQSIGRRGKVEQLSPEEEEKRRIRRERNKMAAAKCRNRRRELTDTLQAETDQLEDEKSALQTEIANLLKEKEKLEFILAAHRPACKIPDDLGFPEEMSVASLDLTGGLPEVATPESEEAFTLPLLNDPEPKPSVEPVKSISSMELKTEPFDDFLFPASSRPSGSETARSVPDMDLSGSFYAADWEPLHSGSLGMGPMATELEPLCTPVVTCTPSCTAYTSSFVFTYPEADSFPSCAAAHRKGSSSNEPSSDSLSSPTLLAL

Row | IC50 | SMILES
1 | 0.2 µM | CC1=CC(=O)N(Nc2nc(-c3cccs3)ncc2C2=NCCO2)C1=O [1-[5-(4,5-Dihydro-oxazol-2-yl)-2-thiophen-2-yl-pyrimidin-4-ylamino]-3-methyl-pyrrole-2,5-dione]
2 | 0.7 µM | CCOC(=O)c1cnc(-c2cccc(Br)c2)nc1NN1C(=O)C=C(C)C1=O [2-(3-Bromo-phenyl)-4-(3-methyl-2,5-dioxo-2,5-dihydro-pyrrol-1-ylamino)-pyrimidine-5-carboxylic acid ethyl ester]
3 | 3 µM | CCOC(=O)c1cnc(-c2ccc(F)cc2)nc1N(C)N1C(=O)C=C(C)C1=O [2-(4-Fluoro-phenyl)-4-[methyl-(3-methyl-2,5-dioxo-2,5-dihydro-pyrrol-1-yl)-amino]-pyrimidine-5-carboxylic acid ethyl ester]
4 | 0.9 µM | CCOC(=O)c1cnc(-c2ccc(OC)cc2)nc1NN1C(=O)C=C(C)C1=O [2-(4-Methoxy-phenyl)-4-(3-methyl-2,5-dioxo-2,5-dihydro-pyrrol-1-ylamino)-pyrimidine-5-carboxylic acid ethyl ester]
5 | 10 µM | CCOC(=O)c1cnc(S(=O)(=O)c2ccccc2)nc1NN1C(=O)C=C(C)C1=O [2-Benzenesulfonyl-4-(3-methyl-2,5-dioxo-2,5-dihydro-pyrrol-1-ylamino)-pyrimidine-5-carboxylic acid ethyl ester]
6 | 4 µM | CCOC(=O)c1cnc(-c2cc3ccccc3s2)nc1NN1C(=O)C=C(C)C1=O [2-Benzo[b]thiophen-2-yl-4-(3-methyl-2,5-dioxo-2,5-dihydro-pyrrol-1-ylamino)-pyrimidine-5-carboxylic acid ethyl ester]
7 | 2 µM | CCOC(=O)c1cnc(CC2=CCCCC2)nc1NN1C(=O)C=C(C)C1=O [2-Cyclohex-1-enylmethyl-4-(3-methyl-2,5-dioxo-2,5-dihydro-pyrrol-1-ylamino)-pyrimidine-5-carboxylic acid ethyl ester]
8 | 1 µM | CCOC(=O)c1cnc(C2CC2)nc1NN1C(=O)C=C(C)C1=O [2-Cyclopropyl-4-(3-methyl-2,5-dioxo-2,5-dihydro-pyrrol-1-ylamino)-pyrimidine-5-carboxylic acid ethyl ester]
9 | 10 µM | CCOC(=O)c1cnc(CC)nc1NN1C(=O)C=C(C)C1=O [2-Ethyl-4-(3-methyl-2,5-dioxo-2,5-dihydro-pyrrol-1-ylamino)-pyrimidine-5-carboxylic acid ethyl ester]
10 | 16 µM | CCOC(=O)c1cnc(C)nc1NN1C(=O)C=C(C)C1=O [2-Methyl-4-(3-methyl-2,5-dioxo-2,5-dihydro-pyrrol-1-ylamino)-pyrimidine-5-carboxylic acid ethyl ester]
11 | 0.2 µM | CC1=CC(=O)N(Nc2nc(-c3cccs3)ncc2-c2nnn(C)n2)C1=O [3-methyl-1-(5-(2-methyl-2H-tetrazol-5-yl)-2-(thiophen-2-yl)pyrimidin-4-ylamino)-1H-pyrrole-2,5-dione]
12 | 0.3 µM | CC1=CC(=O)N(Nc2nc(-c3cccs3)ncc2-c2cc(C)no2)C1=O [3-methyl-1-(5-(3-methylisoxazol-5-yl)-2-(thiophen-2-yl)pyrimidin-4-ylamino)-1H-pyrrole-2,5-dione]
13 | 0.2 µM | CC1=CC(=O)N(Nc2nc(-c3cccs3)ncc2-c2nc(C)co2)C1=O [3-methyl-1-(5-(4-methyloxazol-2-yl)-2-(thiophen-2-yl)pyrimidin-4-ylamino)-1H-pyrrole-2,5-dione]
14 | 0.3 µM | CC1=CC(=O)N(Nc2nc(-c3cccs3)ncc2-c2nnc(C)o2)C1=O [3-methyl-1-(5-(5-methyl-1,3,4-oxadiazol-2-yl)-2-(thiophen-2-yl)pyrimidin-4-ylamino)-1H-pyrrole-2,5-dione]
15 | 20 µM | CCOC(=O)c1cnc(C(F)(F)F)nc1NN1C(=O)C=C(c2ccccc2)C1=O [4-(2,5-Dioxo-3-phenyl-2,5-dihydro-pyrrol-1-ylamino)-2-trifluoromethyl-pyrimidine-5-carboxylic acid ethyl ester]
16 | 8 µM | CCOC(=O)c1cnc(-c2csc(C)n2)nc1NN1C(=O)C=C(C)C1=O [4-(3-Methyl-2,5-dioxo-2,5-dihydro-pyrrol-1-ylamino)-2-(2-methyl-thiazol-4-yl)-pyrimidine-5-carboxylic acid ethyl ester]
17 | 7 µM | CCOC(=O)c1cnc(-c2cccc([N+](=O)[O-])c2)nc1NN1C(=O)C=C(C)C1=O [4-(3-Methyl-2,5-dioxo-2,5-dihydro-pyrrol-1-ylamino)-2-(3-nitro-phenyl)-pyrimidine-5-carboxylic acid ethyl ester]
18 | 0.4 µM | CCOC(=O)c1cnc(-c2ccc(C(F)(F)F)cc2)nc1NN1C(=O)C=C(C)C1=O [4-(3-Methyl-2,5-dioxo-2,5-dihydro-pyrrol-1-ylamino)-2-(4-trifluoromethyl-phenyl)-pyrimidine-5-carboxylic acid ethyl ester]
19 | 0.2 µM | CCOC(=O)c1cnc(-c2ccc(C)s2)nc1NN1C(=O)C=C(C)C1=O [4-(3-Methyl-2,5-dioxo-2,5-dihydro-pyrrol-1-ylamino)-2-(5-methyl-thiophen-2-yl)-pyrimidine-5-carboxylic acid ethyl ester]
20 | 0.2 µM | CCOC(=O)c1cnc(SC)nc1NN1C(=O)C=C(C)C1=O [4-(3-Methyl-2,5-dioxo-2,5-dihydro-pyrrol-1-ylamino)-2-methylsulfanyl-pyrimidine-5-carboxylic acid ethyl ester]
21 | 0.1 µM | CCOC(=O)c1cnc(-c2ccccc2)nc1NN1C(=O)C=C(C)C1=O [4-(3-Methyl-2,5-dioxo-2,5-dihydro-pyrrol-1-ylamino)-2-phenyl-pyrimidine-5-carboxylic acid ethyl ester]
22 | 5 µM | CC1=CC(=O)N(Nc2nc(-c3cccs3)ncc2C#N)C1=O [4-(3-Methyl-2,5-dioxo-2,5-dihydro-pyrrol-1-ylamino)-2-thiophen-2-yl-pyrimidine-5-carbonitrile]
23 | 1 µM | CCOC(=O)c1cnc(C(F)(F)F)nc1NN1C(=O)C=C(C)C1=O [4-(3-Methyl-2,5-dioxo-2,5-dihydro-pyrrol-1-ylamino)-2-trifluoromethyl-pyrimidine-5-carboxylic acid ethyl ester]
24 | 4 µM | CCOC(=O)c1cnc(-c2ccccc2)nc1N(C(C)=O)N1C(=O)C=C(C)C1=O [4-[Acetyl-(3-methyl-2,5-dioxo-2,5-dihydro-pyrrol-1-yl)-amino]-2-phenyl-pyrimidine-5-carboxylic acid ethyl ester]
25 | 2 µM | CCOC(=O)c1cnc(-c2cc(Cl)nc(Cl)c2)nc1NN1C(=O)C=C(C)C1=O [ethyl 2-(2,6-dichloropyridin-4-yl)-4-(3-methyl-2,5-dioxo-2H-pyrrol-1(5H)-ylamino)pyrimidine-5-carboxylate]
26 | 0.3 µM | CCOC(=O)c1cnc(-c2cc(Cl)cc(Cl)c2)nc1NN1C(=O)C=C(C)C1=O [ethyl 2-(3,5-dichlorophenyl)-4-(3-methyl-2,5-dioxo-2H-pyrrol-1(5H)-ylamino)pyrimidine-5-carboxylate]
27 | 10 µM | CCOC(=O)c1cnc(-n2nc(C)cc2C)nc1NN1C(=O)C=C(C)C1=O [ethyl 2-(3,5-dimethyl-1H-pyrazol-1-yl)-4-(3-methyl-2,5-dioxo-2H-pyrrol-1(5H)-ylamino)pyrimidine-5-carboxylate]
28 | 5 µM | CCOC(=O)c1cnc(-c2cccc(OC)c2)nc1NN1C(=O)C=C(C)C1=O [ethyl 2-(3-methoxyphenyl)-4-(3-methyl-2,5-dioxo-2H-pyrrol-1(5H)-ylamino)pyrimidine-5-carboxylate]
